Assays:
Assay type in all cases: in vivo
[1] = test system: Cabbage Looper [Trichoplusia ni (Hubner)]; experiment: Cabbage looper test (CL); details: second-instar larvae, 3-5 days, percent in solution
[2] = test system: Beet Armyworm (Spodoptera exigua); experiment: Beet armyworm test (BAW); details: second-instar larvae, five days, percent in solution
Method: (§1) The compounds in Tables 1 and 2 above were tested for insecticidal activity using the following testing procedures. LC50 values, based on the results of these tests and calculated according to dosage-mortality curves, are expressed in Table 3.
Beet Armyworm (Spodoptera exigua)
Test compounds were diluted in a 50-50 acetone-water solution. Young leaves of sugar beets (Beta vulgaris) were immersed in the test solutions for 2-3 seconds and placed on a wire screen to dry. The dried leaves were placed in petri dishes containing a moistened filter paper and infested with five second-instar beet armyworm larvae. The dishes were placed in a high humidity chamber. Mortality of the larvae was recorded five days later. Test concentrations ranged from 0.1% downward. The LC-50 values are expressed below in Table 3 under the heading "BAW" in terms of percent of the test compound in solution.

[3] = test system: Aster Leafhopper [Macrosteles fascifrens (Stal)]; experiment: Aster leafhopper test (LH); details: adults/nymphs, 48 hours, percent in solution
[4] = test system: Housefly [Musca domestica]; experiment: Housefly insecticidal test (HF); details: per 25 female houseflies, 48 hours
[5] = test system: Tobacco Budworm [Heliothis virescens (Fabricius)] eggs; experiment: Tobacco budworm egg test (TBW-E); details: percent in solution
[6] = test system: Maize weevil [Sitophilus Zeamais (Motschulsky)]; experiment: Maize weevil test (MW); details: adult weevils, treated corn seeds, 48 hours, percent in solution
Method in brief: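 Adult weevils (10) were placed with four corn seeds that had been dipped 2-3 s in compound dissolved in 50:50 acetone:water, then dried, and held at about 25° C. Mortality was scored at 48 h. LC50 was taken from dosage-mortality curves and expressed as percent compound in solution, from a 0.01% top concentration.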

[7] = test system: Tobacco Budworm [Heliothis virescens (Fabricius)]; experiment: Tobacco budworm contact test (TBW-C); details: second-instar larvae, 5 days, percent in solution
Method: as §1
Tobacco Budworm [Heliothis virescens (Fabricius)]
(a) Contact: Test compounds were diluted in a 50-50 acetonewater solution. Cotton (Gossypium sp.) cotyledons were immersed in the test solutions for 2-3 seconds and placed on a wire screen to dry. The dried leaves were placed in petri dishes containing a moistened piece of filter paper and infested with 5 second-instar tobacco budworm larvae. The dishes were placed in a high humidity chamber for 5 days, and percent mortality of the larvae recorded. Test concentrations ranged from 0.1% downward. The LC-50 values are expressed below in Table 3 under the heading "TBW-C" in terms of percent of the test compound in the solution.

Compound	LC50 CL [1] [%]	LC50 BAW [2] [%]	LC50 LH [3] [%]	LC50 HF [4] [µg]	LC50 TBW E [5] [%]	LC50 MW [6] [%]	LC50 TBW C [7] [%]
CC(C)C(=Nc1cccc(Cl)c1)OCc1cccc(Oc2ccccc2)c1 [Compound 7]	0.006	0.006	0.0002	8	0.009	–	–
CC(C)C(=Nc1ccc(Cl)c(Cl)c1)OCc1cccc(Oc2ccccc2)c1 [Compound 14]	0.004	0.005	0.001	40	–	0.01	–
CC(C)C(=Nc1ccc(Cl)cc1)OCc1ccc(F)c(Oc2ccccc2)c1 [Compound 23]	0.0005	0.001	–	5	0.017	–	–
Clc1ccccc1N=C(OCc1cccc(Oc2ccccc2)c1)C(Cl)Cl [Compound 34]	0.015	0.015	–	> 100	> 0.1	–	0.01
CC(C)C(=Nc1ccc(F)cc1)OCc1cccc(Oc2ccccc2)c1 [Compound 46]	0.003	0.006	0.002	7	0.016	–	–
CC(C)C(=Nc1ccc(F)cc1)OCc1ccc(F)c(Oc2ccccc2)c1 [Compound 53]	0.0005	0.003	–	2	0.02	–	0.0025
CC(C)C(=Nc1cccc(C(F)(F)F)c1)OCc1cccc(Oc2ccccc2)c1 [Compound 67]	0.001	0.006	0.00027	15	0.01	–	–
Cc1c(Cl)cccc1N=C(OCc1cccc(Oc2ccccc2)c1)C(Cl)Cl [Compound 97]	0.002	0.01	–	10	0.04	–	0.004
CCC(C)C(=Nc1ccc(F)c(Cl)c1)OCc1cccc(Oc2ccccc2)c1 (stereo not shown) [Compound 122]	0.0007	0.01	> 0.05	37	0.05	–	–
Cc1ccc(N=C(OCc2cccc(Oc3ccccc3)c2)C(Cl)Cl)cc1 [Compound 139]	0.015	0.007	–	4.2	0.05	–	0.005
O=[N+]([O-])c1ccc(N=C(OCc2cccc(Oc3ccccc3)c2)C(Cl)Cl)cc1 [Compound 173]	0.02	> 0.1	–	18	> 0.1	–	> 0.1
O=[N+]([O-])c1cccc(N=C(OCc2cccc(Oc3ccccc3)c2)C(Cl)Cl)c1 [Compound 174]	0.03	0.1	–	17	> 0.1	–	–
CC(C)C(=Nc1ccc(Br)cc1)OCc1cccc(Oc2ccc(F)cc2)c1 [Compound 226]	0.0005	–	0.002	16	0.1	0.009	0.001
CC(C)C(=Nc1ccc(I)cc1)OCc1cccc(Oc2ccc(F)cc2)c1 [Compound 234]	0.00045	–	0.003	38	0.09	> 0.01	0.0013
CC(C)C(=Nc1ccc(F)c(Cl)c1)OCc1cccc(Oc2ccc(Br)cc2)c1 [Compound 238]	0.0002	–	> 0.05	25	0.05	> 0.01	0.0004
CC(C)C(=Nc1ccc(F)c(Br)c1)OCc1cccc(Oc2ccc(F)cc2)c1 [Compound 253]	0.00013	–	0.003	10	> 0.1	> 0.01	0.0005
CC(C)C(=Nc1ccc(Br)c(F)c1)OCc1ccc(F)c(Oc2ccc(F)cc2)c1 [Compound 282]	0.00007	0.0025	–	16	0.02	0.008	0.0007
CC(C)C(=Nc1ccc(F)c(C(F)(F)F)c1)OCc1ccc(F)c(Oc2ccc(Cl)cc2)c1 [Compound 297]	0.00027	–	0.0001	23	0.025	0.0071	0.00075
CC(C)C(=Nc1ccc(F)c(I)c1)OCc1ccc(F)c(Oc2ccc(Cl)cc2)c1 [Compound 326]	0.00015	0.004	–	25	0.03	–	0.0005
CC(C)C(=Nc1ccc(F)c(Cl)c1F)OCc1cccc(Oc2ccccc2)c1 [Compound 332]	0.00045	0.0012	–	7	0.015	–	0.00075
CC(C)C(=Nc1ccc(F)c(Cl)c1)OCc1cccc(Oc2ccccc2)n1 [Compound 462]	0.001	–	0.001	7	0.04	> 0.05	0.0025
CC(C)C(=Nc1ccc(F)c(Cl)c1)OCc1cccc(Oc2ccc(Cl)cc2)n1 [Compound 463]	0.00009	0.0024	0.0003	8	0.0075	0.01	–
CC(C)C(=Nc1ccc(F)c(Cl)c1F)OCc1cccc(Oc2ccc(Cl)cc2)n1 [Compound 500]	0.00009	0.002	–	16	0.02	–	0.00075
C#CCc1c(F)c(F)c(COC(=Nc2ccc(F)c(Cl)c2)C(C)C)c(F)c1F [Compound 520]	> 0.1	–	0.0003	5.5	> 0.1	0.0042	0.00075
CC(C)C(=Nc1ccc(F)c(Cl)c1F)OCc1cccc(Oc2ccc(F)cc2)n1 [Compound 521]	0.00005	–	0.05	7.5	> 0.1	0.01	0.0005
CC(C)C(=Nc1ccc(Cl)c(Cl)c1)OCc1cccc(Oc2ccc(Cl)cc2)n1 [Compound 523]	0.00015	–	> 0.05	22	> 0.1	> 0.01	0.0002
CC(C)C(=Nc1ccc(C(F)(F)F)cc1)OCc1cccc(Oc2ccc(Cl)cc2)n1 [Compound 530]	0.00027	–	0.05	9.8	0.005	> 0.01	0.00005
CC(C)C(=Nc1ccc(F)c(Cl)c1)OCc1cccc(Oc2ccc(F)c(F)c2)n1 [Compound 531]	> 0.1	–	> 0.05	5	> 0.1	> 0.01	0.00037

Source: patent US5089623A, “Certain imidate insecticides” (Imperial Chemical Industries Plc, priority 1990, dated 1992)
